# Measured values taken from patent US20260015311A1, “AMINO LIPID COMPOUND, PREPARATION METHOD THEREFOR, AND USE THEREOF” (SHENZHEN SHENXIN BIOTECHNOLOGY CO., LTD., priority 2022, published 2026).
# What was measured:
# Fluc mRNA [1] = test: Activity of lipid nanoparticles of formulation method 2, Fluc mRNA by intramuscular administration; assay type: in vivo, BALB/c mice
# Protocol: (§1) The formulation method was the same as the formulation method 1, except that the molar ratio of the amino lipid compounds to DSPC, cholesterol and PEG2000-DMG was 50:10:38.5:1.5.
# (§2) 9 mice were assigned randomly to each group and injected with the lipid nanoparticles at a dosage of 0.5 mg/kg by three administration routes, i.e., subcutaneous, intramuscular and tail vein injection (three mice for each administration route). After 12 hours, D-luciferin potassium salt (200 μL, 10 mg/mL) was injected into each mouse through the tail vein. After 10 minutes, the total fluorescence intensity of each mouse was observed on a living imaging system (IVIS-200, Xenogen) and taken photographs for record. The expression intensities of Fluc mRNA delivered by representative amino lipid compounds through the three administration routes are shown in Table 2-4. MC3 was used as a control and SM102 was used as a comparative compound.
# Preparation of Lipid Nanoparticles: LNPs were Prepared Using the Formulation Method 2 for Intramuscular Administration.
# The measurement method was the same as that of Test Example 1.
# Fluc mRNA [2] = test: In vivo delivery of luciferase mRNA (Fluc mRNA) by lipid nanoparticles, living imaging; design: species or system BALB/c mice; details: after 12 hours, total fluorescence
# Protocol: (§3) The amino lipid compounds of the present disclosure were mixed with DOPE, cholesterol, and PEG2000-DMG in a molar ratio of 45:10:42.5:2.5 and dissolved in absolute ethanol. By using a microinjection pump, the resultant ethanol solution and a sodium acetate solution (50 mM, pH=4.0) were mixed in a ratio of 1:3 in a microfluidic chip to prepare a crude solution of lipid nanoparticles, which were then dialyzed in 1×PBS at a controlled temperature of 4° C. for 6 h using a dialysis box (Fisher, MWCO 20,000), and filtered through a 0.22 μm microporous filter membrane before use.
# as §1
# The lipid nanoparticles prepared according to the above formulation method 1 or 2 were used in the biological experiments below for evaluating the performances of in vivo delivery of luciferase mRNA (Fluc mRNA). For the lipid nanoparticles obtained in the formulation method 1, the mass ratio of the amino lipid compounds to the luciferase mRNA was about 10:1, and the lipid nanoparticles were administered subcutaneously; and the lipid nanoparticles obtained in the formulation method 2 were administered by tail vein and intramuscular injection.
# 6-week-old female BALB/c mice weighed about 20 g were selected and fed in a SPF-grade feeding room. Animal tests were conducted strictly according to the guidelines of National Health institutions and the requirements of animal ethics.
# as §2
# [3] = Stability of lipid nanoparticles at 25° C., DLS particle size and PDI; assay type: physicochemical; details: for particle size change after four weeks of storage: 25° C., week 4 versus week 0; for particle size: preparation day (week 0)
# Protocol: as §3
# (§4) Preparation of Lipid Nanoparticles: The Formulation Method 1 was Used to Prepare LNPs for Subcutaneous Administration.
# Characterization of lipid nanoparticles: The particle size and PDI of the prepared lipid nanoparticles were measured by Nano-ZSZEN 3600 (Malvern). 40 μL of the LNP solution was taken for particle size measurement with circulation for three times, 30 seconds for each circulation.
# (§5) The particle size measurements were carried out on the day of preparation (week 0), and after one week (week 1), two weeks (week 2), and four weeks (week 4) of storage at 25° C., and the expression intensities of Fluc mRNA delivered by subcutaneous administration were determined on the day of preparation (week 0) and after four weeks (week 4).
# Fluc mRNA [4] = test: Stability of lipid nanoparticles at 25° C., subcutaneous expression of Fluc mRNA; assay type: in vivo, mice; details: for Fluc expression change after four weeks: 25° C., week 4 versus week 0
# Protocol: as §3, §2, §4, §5
# [5] = subcutaneous administration, formulation method 1, 0.5 mg/kg
# [6] = week 0, subcutaneous administration
# [7] = week 4, storage at 25° C., subcutaneous administration
smiles,measurement,setting,value
CCCCCCCCCOC(=O)CCCCCCCN(CCCCCCCC(=O)OC(CCCCCCCC)CCCCCCCC)C1CCCC1O (centres unmarked) [Comparative compound 1],Fluorescence intensity (expression intensity of Fluc mRNA),Fluc mRNA [1],1.7E + 05
CCCCCCCCCCCOC(=O)CCCCCN(CCCCCCCC(=O)OC(CCCCCCCC)CCCCCCCC)C1CCCCC1O (centres unmarked) [Comparative compound 3],Fluorescence intensity (expression intensity of Fluc mRNA),Fluc mRNA [1],2.9E + 05
CCCCCCCCC(CCCCCC)OC(=O)CCCCCN(CCCCCC(=O)OC(CCCCCC)CCCCCCCC)C1CCCCC1O (centres unmarked) [Comparative compound 4],Fluorescence intensity (expression intensity of Fluc mRNA),Fluc mRNA [1],1.3E + 05
CCCCCCCCCOC(=O)CCCCCCCN(CCCCCCCC(=O)OC(CCCCCCCC)CCCCCCCC)C1CCC(O)CC1 (centres unmarked) [Comparative compound 6],Fluorescence intensity (expression intensity of Fluc mRNA),Fluc mRNA [1],1.9E + 07
same,Fluorescence intensity (expression intensity of Fluc mRNA),Fluc mRNA [1]; listed as comparative compound 6,1.9E+07
CCCCCCCCCCCOC(=O)CCCCCN(CCCCCCCC(=O)OC(CCCCCCCC)CCCCCCCC)C1CCC(O)CC1 (centres unmarked) [Comparative compound 7],Fluorescence intensity (expression intensity of Fluc mRNA),Fluc mRNA [1],4.5E + 06
CCCCCCCCC(CCCCCC)OC(=O)CCCCCN(CCCCCC(=O)OC(CCCCCC)CCCCCCCC)C1CCC(O)CC1 (centres unmarked) [Comparative compound 8],Fluorescence intensity (expression intensity of Fluc mRNA),Fluc mRNA [1],2.1E + 06
CCCCCCCCCOC(=O)CCCCCCCN(CCCCCCCC(=O)OC(CCCCCCCC)CCCCCCCC)C1CC(O)C1 (centres unmarked) [Compound 1],Fluorescence intensity (expression intensity of Fluc mRNA),Fluc mRNA [2]; [5],2.7E + 07
CCCCCCCCCOC(=O)CCCCCCCN(CCCCCCCC(=O)OC(CCCCCCCC)CCCCCCCC)C1CCC(O)C1 (centres unmarked) [Compound 4],Fluorescence intensity (expression intensity of Fluc mRNA),Fluc mRNA [1],6.7E + 06
CCCCCCCCCCCOC(=O)CCCCCN(CCCCCCCC(=O)OC(CCCCCCCC)CCCCCCCC)C1CCC(O)C1 (centres unmarked) [Compound 5],Fluorescence intensity (expression intensity of Fluc mRNA),Fluc mRNA [2]; [5],1.4E + 07
same,particle size change after four weeks of storage,[3],did not increase significantly
same,particle size,[3],about 100 nm
same,Z-Average,[3]; week 0 (day of preparation),105 nm·days
same,PDI,"[3]; week 1, storage at 25° C.",0.05
same,Z-Average,"[3]; week 1, storage at 25° C.",110 nm·days
same,PDI,"[3]; week 2, storage at 25° C.",0.06
same,Z-Average,"[3]; week 2, storage at 25° C.",110 nm·days
same,Z-Average,"[3]; week 4, storage at 25° C.",115 nm·days
same,Fluc expression change after four weeks,Fluc mRNA [4],did not decrease significantly
same,Fluc Expression intensities,Fluc mRNA [4]; [6],1.4E+07
same,Fluc Expression intensities,Fluc mRNA [4]; [7],1.1E+07
CCCCCCCCCOC(=O)CCCCCCCN(CCCCCCCC(=O)OC(CCCCCCCC)CCCCCCCC)C1CCCC(O)C1 (centres unmarked) [Compound 6],Fluorescence intensity (expression intensity of Fluc mRNA),"Fluc mRNA [2]; intramuscular injection, formulation method 2, 0.5 mg/kg",1.2E + 08
same,Fluorescence intensity (expression intensity of Fluc mRNA),Fluc mRNA [2]; [5],3.7E + 08
same,Fluorescence intensity (expression intensity of Fluc mRNA),"Fluc mRNA [2]; tail vein administration, formulation method 2, 0.5 mg/kg",1.7E + 08
same,particle size change after four weeks of storage,[3],did not increase significantly
same,particle size,[3],about 100 nm
same,Z-Average,[3]; week 0 (day of preparation),110 nm·days
same,PDI,"[3]; week 1, storage at 25° C.",0.05
same,Z-Average,"[3]; week 1, storage at 25° C.",110 nm·days
same,PDI,"[3]; week 2, storage at 25° C.",0.04
same,Z-Average,"[3]; week 2, storage at 25° C.",125 nm·days
same,Z-Average,"[3]; week 4, storage at 25° C.",125 nm·days
same,Fluc expression change after four weeks,Fluc mRNA [4],did not decrease significantly
same,Fluc Expression intensities,Fluc mRNA [4]; [6],3.7E+08
same,Fluc Expression intensities,Fluc mRNA [4]; [7],3.6E+08
